Laboratory results as given in ChEMBL document CHEMBL5465560, “Selectivity Literature for EUbOPEN Chemogenomic Library” (2024).

How the values were obtained:
[1] = target: Histone-lysine N-methyltransferase SETD2 (Homo sapiens) (UniProt Q9BYW2); assay: Selectivity interaction (Methyltransferase screen (radiometric assays, panel of 8 PRMTs, 21 protein lysine methyltransferases, 3 DNA methyltransferases, and one RNA methyltransferase)) EUB0000272b SETD2
[2] = target: T1, Megakaryocyte-associated tyrosine-protein kinase (Homo sapiens) (UniProt P42679); assay: Selectivity interaction (KinomeScan (DiscoverX)) EUB0001079a MATK; settings: at 1 µM
T1 sequence (whole entry): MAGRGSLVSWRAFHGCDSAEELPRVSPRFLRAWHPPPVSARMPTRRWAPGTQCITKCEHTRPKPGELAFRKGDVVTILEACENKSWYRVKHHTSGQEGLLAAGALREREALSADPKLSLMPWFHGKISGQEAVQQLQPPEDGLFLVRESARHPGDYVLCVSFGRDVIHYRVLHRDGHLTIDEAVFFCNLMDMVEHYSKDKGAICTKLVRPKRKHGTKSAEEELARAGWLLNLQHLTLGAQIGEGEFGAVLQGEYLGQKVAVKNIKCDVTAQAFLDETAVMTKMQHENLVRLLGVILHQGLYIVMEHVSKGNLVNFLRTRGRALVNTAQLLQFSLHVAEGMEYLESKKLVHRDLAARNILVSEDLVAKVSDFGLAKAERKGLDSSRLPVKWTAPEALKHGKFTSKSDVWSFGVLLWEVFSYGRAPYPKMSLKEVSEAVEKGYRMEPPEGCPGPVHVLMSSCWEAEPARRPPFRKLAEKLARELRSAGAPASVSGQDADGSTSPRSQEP

[3] = target: Receptor-interacting serine/threonine-protein kinase 2 (Homo sapiens, UniProt O43353); assay: Selectivity interaction (KinomeScan (DiscoverX)) EUB0000666a RIPK2; settings: at 10 µM
[4] = target: T2, Serine/threonine-protein kinase STK11 (Homo sapiens) (UniProt Q15831); settings: at 10 µM
T2 sequence (whole entry): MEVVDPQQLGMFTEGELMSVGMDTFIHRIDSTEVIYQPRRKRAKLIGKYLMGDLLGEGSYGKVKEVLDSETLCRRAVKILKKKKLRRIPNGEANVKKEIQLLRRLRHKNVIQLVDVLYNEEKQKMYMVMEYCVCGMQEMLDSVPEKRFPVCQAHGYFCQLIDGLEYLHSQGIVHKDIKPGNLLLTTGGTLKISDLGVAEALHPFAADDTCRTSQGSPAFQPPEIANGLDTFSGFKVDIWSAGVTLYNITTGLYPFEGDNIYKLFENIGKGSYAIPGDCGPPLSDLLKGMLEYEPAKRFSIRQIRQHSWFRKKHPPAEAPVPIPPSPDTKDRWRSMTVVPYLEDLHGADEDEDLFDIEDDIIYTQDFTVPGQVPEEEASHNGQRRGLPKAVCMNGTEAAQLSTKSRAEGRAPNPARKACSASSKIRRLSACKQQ

[5] = target: Calcium/calmodulin-dependent protein kinase type II subunit gamma (Homo sapiens) (UniProt Q13555); assay: Selectivity interaction (KinomeScan (DiscoverX)) EUB0000607a CAMK2G; settings: at 10 µM
Calcium/calmodulin-dependent protein kinase type II subunit gamma (Homo sapiens), sequence (Q13555 whole entry): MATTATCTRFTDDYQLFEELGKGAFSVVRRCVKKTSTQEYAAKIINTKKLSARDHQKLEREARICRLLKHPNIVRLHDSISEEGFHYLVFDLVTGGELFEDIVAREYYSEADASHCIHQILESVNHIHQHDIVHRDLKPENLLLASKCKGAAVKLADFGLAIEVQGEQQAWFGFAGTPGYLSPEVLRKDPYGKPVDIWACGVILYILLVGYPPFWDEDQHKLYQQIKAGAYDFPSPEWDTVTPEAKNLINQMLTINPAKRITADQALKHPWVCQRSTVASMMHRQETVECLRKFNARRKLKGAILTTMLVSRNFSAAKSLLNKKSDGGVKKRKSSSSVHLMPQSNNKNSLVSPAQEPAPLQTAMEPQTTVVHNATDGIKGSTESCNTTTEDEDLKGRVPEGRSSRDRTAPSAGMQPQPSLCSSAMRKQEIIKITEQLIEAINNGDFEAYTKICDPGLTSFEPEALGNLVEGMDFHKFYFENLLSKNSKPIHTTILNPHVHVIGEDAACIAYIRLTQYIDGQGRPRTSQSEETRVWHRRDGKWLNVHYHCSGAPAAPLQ

[6] = target: Angiopoietin-1 receptor (Homo sapiens) (UniProt Q02763); assay: Selectivity interaction (KinomeScan (DiscoverX)) EUB0001049a TEK; settings: at 1 µM
Angiopoietin-1 receptor (Homo sapiens), sequence (Q02763 whole entry): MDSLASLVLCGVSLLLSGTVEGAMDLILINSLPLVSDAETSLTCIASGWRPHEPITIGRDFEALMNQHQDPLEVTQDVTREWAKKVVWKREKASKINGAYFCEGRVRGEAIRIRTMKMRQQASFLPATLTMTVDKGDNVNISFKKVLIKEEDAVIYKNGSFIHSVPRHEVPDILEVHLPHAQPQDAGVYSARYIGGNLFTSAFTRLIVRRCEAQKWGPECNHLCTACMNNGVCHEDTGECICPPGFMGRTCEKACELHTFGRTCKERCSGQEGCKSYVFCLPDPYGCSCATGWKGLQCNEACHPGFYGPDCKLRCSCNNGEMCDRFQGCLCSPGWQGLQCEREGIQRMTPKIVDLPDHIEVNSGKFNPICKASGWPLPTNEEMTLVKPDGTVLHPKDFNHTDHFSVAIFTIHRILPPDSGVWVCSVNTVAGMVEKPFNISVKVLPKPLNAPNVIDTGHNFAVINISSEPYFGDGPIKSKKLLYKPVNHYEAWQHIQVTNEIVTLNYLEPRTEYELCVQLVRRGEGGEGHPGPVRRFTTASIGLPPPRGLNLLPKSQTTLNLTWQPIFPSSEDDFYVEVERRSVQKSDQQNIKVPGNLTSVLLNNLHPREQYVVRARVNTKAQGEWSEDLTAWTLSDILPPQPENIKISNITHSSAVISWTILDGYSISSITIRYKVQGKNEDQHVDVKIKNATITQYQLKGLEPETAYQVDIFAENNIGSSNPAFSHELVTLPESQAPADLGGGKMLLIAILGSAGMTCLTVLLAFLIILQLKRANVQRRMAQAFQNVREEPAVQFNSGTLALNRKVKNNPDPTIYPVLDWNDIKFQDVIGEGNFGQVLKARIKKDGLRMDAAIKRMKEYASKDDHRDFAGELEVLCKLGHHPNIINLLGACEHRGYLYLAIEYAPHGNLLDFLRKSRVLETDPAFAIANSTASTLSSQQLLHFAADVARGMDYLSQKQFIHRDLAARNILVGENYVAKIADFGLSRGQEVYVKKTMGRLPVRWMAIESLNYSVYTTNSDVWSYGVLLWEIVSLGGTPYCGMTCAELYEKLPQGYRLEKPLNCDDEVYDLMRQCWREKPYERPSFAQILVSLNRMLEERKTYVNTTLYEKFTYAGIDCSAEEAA

[7] = target: Histone-lysine N-methyltransferase 2C (Homo sapiens) (UniProt Q8NEZ4); assay: Selectivity interaction (Methyltransferase screen (radiometric assays, panel of 8 PRMTs, 21 protein lysine methyltransferases, 3 DNA methyltransferases, and one RNA methyltransferase)) EUB0000271b MLL3
[8] = target: Calcium/calmodulin-dependent protein kinase type 1G (Homo sapiens) (UniProt Q96NX5); assay: Selectivity interaction (KinomeScan (DiscoverX)) EUB0000045b CAMK1G
Calcium/calmodulin-dependent protein kinase type 1G (Homo sapiens), sequence (Q96NX5 whole entry): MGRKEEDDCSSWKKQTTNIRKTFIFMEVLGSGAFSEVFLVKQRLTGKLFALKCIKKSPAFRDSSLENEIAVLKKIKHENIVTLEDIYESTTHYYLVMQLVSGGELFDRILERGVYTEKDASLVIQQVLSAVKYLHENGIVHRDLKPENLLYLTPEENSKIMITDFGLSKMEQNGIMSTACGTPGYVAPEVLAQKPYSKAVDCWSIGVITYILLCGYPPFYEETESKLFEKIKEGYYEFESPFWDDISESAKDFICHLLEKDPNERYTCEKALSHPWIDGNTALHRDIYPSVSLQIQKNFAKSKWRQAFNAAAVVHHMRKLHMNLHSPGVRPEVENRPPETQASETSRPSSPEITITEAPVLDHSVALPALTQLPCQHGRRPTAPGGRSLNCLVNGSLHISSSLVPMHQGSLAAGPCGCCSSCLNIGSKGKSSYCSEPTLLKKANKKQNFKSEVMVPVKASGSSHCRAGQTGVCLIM

[9] = target: T3, Serine/threonine-protein kinase Nek1 (Homo sapiens) (UniProt Q96PY6); assay: Selectivity interaction (KinomeScan (DiscoverX)) EUB0000045b NEK1
T3 sequence (whole entry): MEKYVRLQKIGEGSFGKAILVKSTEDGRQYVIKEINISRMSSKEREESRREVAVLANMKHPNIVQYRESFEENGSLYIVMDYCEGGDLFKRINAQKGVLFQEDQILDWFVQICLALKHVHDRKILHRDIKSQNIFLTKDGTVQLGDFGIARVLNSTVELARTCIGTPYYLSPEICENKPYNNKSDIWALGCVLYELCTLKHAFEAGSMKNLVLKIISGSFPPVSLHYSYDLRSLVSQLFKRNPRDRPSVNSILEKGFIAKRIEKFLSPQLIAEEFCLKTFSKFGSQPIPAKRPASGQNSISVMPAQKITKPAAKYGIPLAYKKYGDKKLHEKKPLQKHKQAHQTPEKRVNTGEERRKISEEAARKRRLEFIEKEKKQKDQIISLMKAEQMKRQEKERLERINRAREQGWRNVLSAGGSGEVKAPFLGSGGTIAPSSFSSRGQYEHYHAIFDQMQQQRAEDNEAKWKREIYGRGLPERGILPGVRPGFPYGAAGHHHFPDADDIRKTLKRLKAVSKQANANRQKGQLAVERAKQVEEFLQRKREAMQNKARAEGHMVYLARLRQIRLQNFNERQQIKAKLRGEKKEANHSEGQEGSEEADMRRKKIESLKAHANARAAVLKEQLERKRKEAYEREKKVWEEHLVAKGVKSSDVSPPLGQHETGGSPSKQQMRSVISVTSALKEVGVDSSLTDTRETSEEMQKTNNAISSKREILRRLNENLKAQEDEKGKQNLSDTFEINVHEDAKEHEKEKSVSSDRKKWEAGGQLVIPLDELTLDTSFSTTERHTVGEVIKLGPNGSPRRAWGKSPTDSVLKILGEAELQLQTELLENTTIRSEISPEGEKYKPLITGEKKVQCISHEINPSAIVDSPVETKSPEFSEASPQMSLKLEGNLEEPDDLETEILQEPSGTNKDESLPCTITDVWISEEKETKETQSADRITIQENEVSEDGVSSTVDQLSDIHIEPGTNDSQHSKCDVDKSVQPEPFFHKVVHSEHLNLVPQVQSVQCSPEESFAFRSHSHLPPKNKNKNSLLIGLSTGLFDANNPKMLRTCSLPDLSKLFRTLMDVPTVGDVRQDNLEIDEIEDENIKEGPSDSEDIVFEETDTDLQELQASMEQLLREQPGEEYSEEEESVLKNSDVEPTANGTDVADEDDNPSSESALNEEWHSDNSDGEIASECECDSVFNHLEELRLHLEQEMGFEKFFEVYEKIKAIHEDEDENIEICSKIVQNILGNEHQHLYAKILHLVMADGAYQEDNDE

[10] = target: Angiopoietin-1 receptor (Homo sapiens) (UniProt Q02763); assay: Selectivity interaction (Kinase screening (Nanosyn)) EUB0000604a TEK
[11] = target: Serine/threonine-protein kinase B-raf (Homo sapiens) (UniProt P15056); assay: Selectivity interaction (ActivX KiNativ screen (ex vivo kinase selectivity in human PBMCs)) EUB0001619a BRAF; type: cell-based; settings: PBMC, at 1 µM

Histone-lysine N-methyltransferase SETD2 (Homo sapiens), sequence (Q9BYW2 whole entry): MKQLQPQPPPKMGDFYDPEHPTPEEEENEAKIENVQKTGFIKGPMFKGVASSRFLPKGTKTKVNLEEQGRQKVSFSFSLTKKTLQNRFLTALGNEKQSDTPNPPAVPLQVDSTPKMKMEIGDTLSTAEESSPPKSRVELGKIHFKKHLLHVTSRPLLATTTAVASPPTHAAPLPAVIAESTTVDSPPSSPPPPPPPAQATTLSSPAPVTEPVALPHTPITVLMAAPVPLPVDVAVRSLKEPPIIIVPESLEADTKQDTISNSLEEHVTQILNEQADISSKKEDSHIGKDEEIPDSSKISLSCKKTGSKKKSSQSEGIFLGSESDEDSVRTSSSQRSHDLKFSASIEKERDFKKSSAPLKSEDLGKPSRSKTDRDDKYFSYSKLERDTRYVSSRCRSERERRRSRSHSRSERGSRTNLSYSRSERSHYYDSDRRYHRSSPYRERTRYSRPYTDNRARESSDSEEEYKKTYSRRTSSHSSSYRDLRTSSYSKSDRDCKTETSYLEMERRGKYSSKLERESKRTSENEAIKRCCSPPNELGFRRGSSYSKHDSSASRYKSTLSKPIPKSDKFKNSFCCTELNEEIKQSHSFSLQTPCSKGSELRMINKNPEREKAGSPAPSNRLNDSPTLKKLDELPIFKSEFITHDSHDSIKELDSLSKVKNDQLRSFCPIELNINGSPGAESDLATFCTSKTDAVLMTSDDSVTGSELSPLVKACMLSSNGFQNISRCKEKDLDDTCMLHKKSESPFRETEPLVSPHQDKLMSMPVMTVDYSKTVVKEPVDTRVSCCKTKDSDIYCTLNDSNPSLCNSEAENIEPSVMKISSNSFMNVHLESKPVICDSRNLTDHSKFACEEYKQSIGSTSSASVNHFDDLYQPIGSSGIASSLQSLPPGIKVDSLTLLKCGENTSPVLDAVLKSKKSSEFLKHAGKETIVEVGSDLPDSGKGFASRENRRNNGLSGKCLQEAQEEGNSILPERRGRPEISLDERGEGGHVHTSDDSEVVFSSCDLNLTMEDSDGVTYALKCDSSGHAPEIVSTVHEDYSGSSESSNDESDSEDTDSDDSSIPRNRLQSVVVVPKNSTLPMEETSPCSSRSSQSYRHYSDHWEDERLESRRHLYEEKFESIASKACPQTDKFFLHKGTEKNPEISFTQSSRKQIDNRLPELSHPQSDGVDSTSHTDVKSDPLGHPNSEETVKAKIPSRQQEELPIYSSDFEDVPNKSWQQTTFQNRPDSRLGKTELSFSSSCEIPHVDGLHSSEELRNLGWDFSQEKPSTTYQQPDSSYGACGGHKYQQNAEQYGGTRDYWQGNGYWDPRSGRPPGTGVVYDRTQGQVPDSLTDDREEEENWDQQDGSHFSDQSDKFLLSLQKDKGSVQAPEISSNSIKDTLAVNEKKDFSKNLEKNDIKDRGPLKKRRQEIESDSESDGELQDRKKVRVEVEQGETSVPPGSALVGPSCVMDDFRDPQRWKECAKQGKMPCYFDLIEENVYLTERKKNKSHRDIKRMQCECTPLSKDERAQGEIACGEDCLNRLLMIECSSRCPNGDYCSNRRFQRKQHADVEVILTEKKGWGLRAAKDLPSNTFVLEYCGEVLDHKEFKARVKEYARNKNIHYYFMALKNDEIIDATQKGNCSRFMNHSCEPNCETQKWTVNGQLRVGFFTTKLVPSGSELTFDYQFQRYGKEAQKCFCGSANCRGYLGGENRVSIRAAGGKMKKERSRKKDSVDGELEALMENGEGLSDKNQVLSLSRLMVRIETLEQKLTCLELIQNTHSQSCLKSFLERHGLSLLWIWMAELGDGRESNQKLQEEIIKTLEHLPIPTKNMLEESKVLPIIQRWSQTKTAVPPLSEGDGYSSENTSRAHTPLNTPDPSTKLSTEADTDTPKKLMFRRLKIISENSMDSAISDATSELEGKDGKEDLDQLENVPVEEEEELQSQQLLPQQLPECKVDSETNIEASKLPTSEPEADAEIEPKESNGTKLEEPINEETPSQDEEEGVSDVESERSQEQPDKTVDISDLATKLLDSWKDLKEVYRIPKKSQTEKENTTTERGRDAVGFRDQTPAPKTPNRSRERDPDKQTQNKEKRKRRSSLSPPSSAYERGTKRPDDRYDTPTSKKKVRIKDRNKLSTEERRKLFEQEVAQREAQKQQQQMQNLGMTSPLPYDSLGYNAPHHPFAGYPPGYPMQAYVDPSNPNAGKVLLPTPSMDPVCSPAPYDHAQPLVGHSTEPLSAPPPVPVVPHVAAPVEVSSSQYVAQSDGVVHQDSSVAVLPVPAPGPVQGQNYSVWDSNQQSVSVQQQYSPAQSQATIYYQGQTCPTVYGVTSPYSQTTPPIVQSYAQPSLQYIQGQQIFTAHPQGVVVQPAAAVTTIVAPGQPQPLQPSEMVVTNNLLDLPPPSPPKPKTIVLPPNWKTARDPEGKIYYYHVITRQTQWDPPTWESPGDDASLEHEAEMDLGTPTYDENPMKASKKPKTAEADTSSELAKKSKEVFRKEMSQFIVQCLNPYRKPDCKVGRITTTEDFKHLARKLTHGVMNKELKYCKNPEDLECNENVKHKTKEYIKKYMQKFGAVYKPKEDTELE

Cc1cc(C)cc([C@H]2c3cc(C)ccc3NC(=O)CN2C(=O)c2ccc(Br)s2)c1
% of activity ([1]; at 1 µM): 98%
% of activity ([1]; at 10 µM): 98.3%

Nc1cnc(N2CCc3cc(S(=O)(=O)Nc4c(F)cc(Cl)cc4F)cc(N4CCCC4=O)c32)nc1 [TP-020n]
% of control [2]: 100%

O=C(NOC[C@H](O)CO)c1ccc(F)c(F)c1Nc1ccc(I)cc1F
% of control [3]: 66%

Cc1cc([C@@H](C)Nc2ccccc2C(=O)O)c2nc(N3CCOCC3)cc(=O)n2c1 [AZD-6482]
% of control [4]: 98%

CNC(=O)Nc1ccc(-c2nc(N3CC4CCC(C3)O4)c3cnn(C4CCC5(CC4)OCCO5)c3n2)cc1
% of control [5]: 100%

COc1cc(Nc2nc(C)cc(-c3cnn4nc(OC)ccc34)n2)cc(C(F)(F)F)c1
% of control [6]: 100%

Cc1cc(C)cc([C@@H]2c3cc(C)ccc3NC(=O)CN2C(=O)c2ccc(Br)s2)c1
% of activity ([7]; at 1 µM): 104%
% of activity ([7]; at 10 µM): 97%

C=CC(=O)Nc1cc(-n2c(=O)ccc3cnc4ccc(-c5ccc(NS(C)(=O)=O)cc5)cc4c32)ccc1C
% of control ([8]; at 1 µM): 100%
% of control ([8]; at 10 µM): 68%
% of control ([9]; at 1 µM): 100%
% of control ([9]; at 10 µM): 81%

Cc1cnc(Nc2ccc(F)cc2Cl)nc1-c1c[nH]c(C(=O)N[C@H](CO)c2cccc(Cl)c2)c1
% of inhibition [10]: 0%

N#Cc1cccc(-c2c[nH]c3ncnc(N4CCOCC4)c23)c1
% of inhibition [11]: -1%
